Reference: PMC12392461, “Beyond Estrogenicity: A Comparative Assessment of Bisphenol A and Its Alternatives in In Vitro Assays Questions Safety of Replacements” (Environmental Science & Technology, 2025)
Like-named read-outs stand apart in the source and are kept apart here.

How the values were obtained:
[1] = test system: Antioxidant response element; assay: MitoOxTox: oxidative stress response in AREc32; conditions: for EC10, linear / logEC10: Bioassay ARE, dosing range all; for EC10, linear: linear model fit; for logEC10: log-logistic model fit; for EC10: Arec32, read-out: EC10, linear transformed
Source text: All bioassay media components and the ERα-UAS-bla GripTite and PPARγ-UAS-bla cells were obtained from Thermo Fisher Scientific (Waltham, MA, USA). AREc32 reporter gene cells based on MCF7 were provided by C. Roland Wolf (Cancer Research UK); AhR CALUX cells (H4L7.5c2 derived from H4IIe) were provided by Michael Denison (UC Davis, USA); and SH-SY5Y cells were purchased from Sigma-Aldrich.
(§1) Cell culture conditions and bioassay protocols including response detection are provided in Text S2.1–2.4 and Table S3. − Cell viability was determined from cell confluency using an IncuCyte S3 Live-Cell Analysis System (Sartorius AG, Essen, Germany) before and after exposure, except for SH-SY5Y cells (live–dead staining with Nuclear Green LcS1 and propidium iodide, Abcam, UK). For metabolic activation experiments, cell viability was assessed using the ToxBLAzer DualScreen Kit (Thermo Fisher Scientific) to capture the remaining toxicity in ERα-UAS-bla GripTite after treatment with the aCYP catalyst (details in Text S2.4).
For ARE, the concentration that triggered an induction ratio of 1.5 (ECIR1.5) was used as the benchmark value, as detailed in Text S2.5. IC10 values also served as a threshold for data analysis in all assays; only concentrations below IC10 were considered when deriving EC10 or ECIR1.5. […]
S2: Cell culture and bioassays
S2.1: Cell Culturing Conditions
All suppliers and sources are given in detail in SI-Excel S3. The bioassay media for the different assays were prepared as follows: Assay medium for ER alpha-UAS-bla GripTite (ERα) and PPAR gamma-UAS-bla 293H (PPARγ) was prepared with 98% Opti-MEM, supplemented with 2% charcoal-stripped FBS, and 100 U/mL penicillin-streptomycin. MitoOxTox and AhR assay medium was comprised of 90% DMEM with GlutaMAX, supplemented with 10% FBS, and 100 U/mL penicillin-streptomycin. Neurotoxicity assay medium consisted of the neurobasal […]
(1 picture or pasted object on this page, not shown here) […]
medium, supplemented with 2% B-27 Supplement and 2 mM GlutaMAX Supplement. SH - SY5Y cells were differentiated with 10 µM all-trans retinoic acid prior to the assay.
S2.2: Cell Seeding and Incubation. For all bioassays, cell suspensions in the respective assay medium were dispensed into each well of 384-well plates using a MultiFlo Dispenser (Biotek, (now Agilent), Winooski, VT, U.S.). After seeding, the plates were incubated at 37° C and 5% CO₂ for […]. The final cell densities and plate types were as follows: Black poly-D-lysine coated 384-well plates (Product No. 354663, Corning Inc., NYC, U.S.) were used for PPARγ:
(§2) 6500 cells/well, ERα: 5000 cells/well. White 384-well plates with a clear bottom (Product No.
781098, Greiner, Kremsmünster, Austria) were utilized for the MitoOxTox assay: 2650

[2] = test system: MCF7 (ARE/MMP); conditions: for IC10, linear transformed / IC10, linear / logIC10: dosing range all; for Toxic ratio (TR) TRARE / Toxic ratio (TR) TRMMP: against baseline cytotoxicity; for Toxic ratio (TR) TRARE: ARE readout; for Toxic ratio (TR) TRMMP: MMP readout; for IC10, MCF7, ARE: MCF7, ARE readout; for IC10, MCF7, MMP: MCF7, MMP readout
Method: as §1
(§3) For ARE, the concentration that triggered an induction ratio of 1.5 (ECIR1.5) was used as the benchmark value, as detailed in Text S2.5. IC10 values also served as a threshold for data analysis in all assays; only concentrations below IC10 were considered when deriving EC10 or ECIR1.5.
(§4) We measured the cytotoxicity of BPA and its alternatives in HEK293H (PPARγ), HEK293T (ERα), H4IIe (AhR CALUX), MCF7 (ARE/MMP), and differentiated SH-SY5Y cells (Table S6). […]
(§5) S2.2: Cell Seeding and Incubation. For all bioassays, cell suspensions in the respective assay medium were dispensed into each well of 384-well plates using a MultiFlo Dispenser (Biotek, (now Agilent), Winooski, VT, U.S.). After seeding, the plates were incubated at 37° C and 5% CO₂ for […]. The final cell densities and plate types were as follows: Black poly-D-lysine […]
as §2
(§6) NYC, U.S.) for AhR: 3250 cells/well. Black Collagen I coated plates were used (Product No.
(§7) S2.3: Chemical Dosing and Assay Analysis Procedures. The dosing procedure and high-throughput assay workflow have been described in detail before. 9 The dosing concentrations […]
(§8) Stock solutions were then either added directly to the respective cell culture medium or evaporated under nitrogen, followed by replenishment with fresh medium. The final solvent content in each well was kept below 1% for methanol, 0% for acetonitrile.
(§9) Dosing plates were prepared as 11 -step serial dilutions using a Hamilton Microlab Star robotic system (Hamilton, Bonaduz, Switzerland), and chemicals were dosed in duplicates by transferring 10 μL twice from the dosing plates to the cell plates . After quantifying cell confluency as described in S2. 4., the exposed cells were incubated at 37° C and 5% CO₂ for an additional 24 h. All chemicals were tested in all assays with at least three independent […]
(§10) S2.4: Cell Viability Measurement s and bioanalytical protocols . The confluency as a measure of cell viability was determined with an IncuCyte S3 Live -Cell Analysis System (Sartorius AG, Essen, Germany). With this method the confluency of cells in a microscopy image are normalized to control wells without cells and compared before and after 24 hours of exposure.
(§11) This method has been described previously 13. […]

[3] = test system: HEK293H (PPARγ); conditions: for IC10, linear transformed / IC10, linear / logIC10: PPARγ bioassay cytotoxicity, dosing range all; for IC10, linear: linear model; for logIC10: log-logistic model; for Toxic ratio (TR) TRPPARγ: against baseline cytotoxicity; for IC10, HEK293, PPARγ: cytotoxicity, HEK293 (PPARγ assay cells)
Method: as §1, §3, §4, §5, §2, §6, §7, §8, §9, §10, §11

[4] = test system: HEK293T (ERα); conditions: for IC10, linear transformed / IC10, linear / logIC10: Bioassay ERα; for IC10, linear transformed / IC10, linear / logIC10 / IC10, HEK293, ERα: cytotoxicity; for IC10, linear: linear model fit; for logIC10: log-logistic model fit; for Toxic ratio (TR) TRERα: against baseline cytotoxicity; for IC10, HEK293, ERα: HEK293 (ERα assay cells)
Method: as §1, §3, §4, §5, §2, §6, §7, §8, §9, §10, §11

[5] = test system: H4IIe (AhR CALUX); conditions: for IC10, linear transformed / IC10, linear / logIC10: Bioassay AhR, dosing range all; for IC10, linear transformed / IC10, linear / logIC10 / IC10, H4IIe, AhR: cytotoxicity; for IC10, linear: linear model fit; for logIC10: log-logistic model fit; for Toxic ratio (TR) TRAhR: against baseline cytotoxicity; for IC10, H4IIe, AhR: H4IIe (AhR assay cells)
Method: as §1, §3, §4, §5, §2, §6, §7, §8, §9, §10, §11

[6] = Bioassay ARE, cytotoxicity, linear model fit
[7] = Bioassay ARE, cytotoxicity, log-logistic model fit
[8] = MMP bioassay cytotoxicity, linear model
[9] = MMP bioassay cytotoxicity, log-logistic model

Structure (SMILES)	EC10, linear [1]	logEC10 [1]	IC10, linear transformed ([2]; Bioassay ARE, cytotoxicity)	IC10, linear [2, 6]	logIC10 [2, 7]	IC10, linear transformed ([2]; MMP bioassay cytotoxicity)	IC10, linear [2, 8]	logIC10 [2, 9]	IC10, MCF7, ARE ([2]; cytotoxicity) [µM]	IC10, MCF7, MMP ([2]; cytotoxicity) [µM]	IC10, linear transformed [3]	IC10, linear [3]	logIC10 [3]	IC10, HEK293, PPARγ [3] [µM]	IC10, HEK293, ERα [4] [µM]	IC10, linear transformed [5]	IC10, linear [5]	logIC10 [5]	IC10, H4IIe, AhR [5] [µM]	IC10, linear transformed ([4]; dosing range all)	other results
CCC(C)(c1ccc(O)cc1)c1ccc(O)cc1 [BPB, 4,4'-(Butane-2,2-diyl)diphenol]	no effect	no effect	3.73E-05	3.87E-05	-4.43	3.51E-05	3.05E-05	-4.46	37.3	35.1	2.50E-06	1.29E-05	-4.83	14.8	20.9	8.31E-05	6.98E-05	-4.08	69.8	–	Toxic ratio (TR) TRARE [2]: 0.58; Toxic ratio (TR) TRMMP [2]: 0.62; Toxic ratio (TR) TRPPARγ [3]: 0.61; IC10, linear transformed ([4]; dosing range high): 6.28E-06; IC10, linear ([4]; dosing range high): no cytotoxicity; logIC10 ([4]; dosing range high): -4.68; IC10, linear ([4]; dosing range low): no cytotoxicity; logIC10 ([4]; dosing range low): no cytotoxicity; Toxic ratio (TR) TRERα [4]: 0.43; Toxic ratio (TR) TRAhR [5]: 0.31
CC(c1ccc(O)cc1)c1ccc(O)cc1 [BPE, 4,4′-Ethylidenbisphenol]	no effect	masked by cytotoxicity	7.96E-05	1.10E-04	-4.10	7.86E-05	8.57E-05	-4.10	79.6	78.6	5.10E-06	6.46E-05	-4.15	70.8	67.4	1.06E-04	8.43E-05	-3.97	84.3	3.62E-05	EC10 [1]: 3720 µM; IC10, linear ([4]; dosing range all): 6.74E-05; logIC10 ([4]; dosing range all): -4.23
Oc1ccc(Cc2ccc(O)cc2)cc1 [BPF, Bis(4-hydroxyphenyl)methane]	no effect	masked by cytotoxicity	6.56E-04	6.90E-04	-3.18	5.26E-04	5.00E-04	-3.28	656	526	6.05E-06	1.05E-04	-4.01	97.7	164	2.92E-04	2.92E-04	-3.53	292	1.16E-05	EC10 [1]: 1470 µM; IC10, linear ([4]; dosing range all): 1.61E-04; logIC10 ([4]; dosing range all): -3.78
CC(C)c1cc(C(C)(C)c2ccc(O)c(C(C)C)c2)ccc1O [BPG, 2,2-Bis(4-hydroxy-3-isopropylphenyl)propane]	no effect	no effect	6.03E-06	7.17E-06	-5.22	8.72E-06	8.88E-06	-5.06	6.03	8.72	3.91E-06	5.23E-06	-5.19	6.46	6.95	2.43E-05	2.10E-05	-4.61	21	5.99E-06	Toxic ratio (TR) TRARE [2]: 0.88; Toxic ratio (TR) TRMMP [2]: 0.61; Toxic ratio (TR) TRPPARγ [3]: 0.22; IC10, linear ([4]; dosing range all): no cytotoxicity; logIC10 ([4]; dosing range all): -5.16; Toxic ratio (TR) TRERα [4]: 0.21; Toxic ratio (TR) TRAhR [5]: 0.25
